A short description of the series: solubility of the compound in common solvents. The format is physicochemical. To be noted: 25-30° C.; for solubility in DMF: N,N-dimethylformamide; for solubility in i-PrOAc: isopropyl acetate; for solubility in MTBE: methyl tert-butyl ether. The protocol: The solubility of the compound of the present invention in common solvents was investigated (25-30° C.), and the results are shown in Table 1. It can be seen from Table 1 that the compound of the present invention has good solubility in all of heptane, isopropyl acetate (i-PrOAc), methyl tert-butyl ether (MTBE) and N,N-dimethylformamide (DMF), and particularly, the solubility in N,N-dimethylformamide is much higher than Comparative Examples.

Take “4,4′-di(2-(2-(3,4,5-tris(2,3-dihydrophytoxy)-benzamido)-ethoxy)-ethoxy)-benzhydrylamine [DPA-004]”: the “solubility in DMSO” value was below 1%, the “solubility in MeOH” value is recorded as below 1%, the “solubility in DMF” value is reported as above 1% and the “solubility in Heptane” value is given as above 50%. The “solubility in i-PrOAc” value is listed as above 100% and the “solubility in MTBE” value is listed as above 100%.

Turning to “4,4′-di((5-(3,4,5-tris(isononyloxy)-benzamido)-2-one-3-aza-hexyl)oxy)-benzhydrylamine [DPA-009]”, the “solubility in DMSO” value was below 1%, the “solubility in MeOH” value was below 1%, the “solubility in DMF” value is given as above 30% and the “solubility in Heptane” value is given as above 10%. The “solubility in i-PrOAc” value is listed as above 25% and the “solubility in MTBE” value is reported as above 30%.

Consider “4-(2-(2-(3,4,5-tri(octa/decy/dodecyloxy)-benzamido)-ethoxy)-ethoxy)-benzhydrylamine [DPA-024]”, for which the “solubility in DMSO” value was below 1%, the “solubility in MeOH” value was below 1%, the “solubility in DMF” value is listed as above 30% and the “solubility in Heptane” value is given as above 50%. Besides, the “solubility in i-PrOAc” value is reported as above 100% and the “solubility in MTBE” value is above 100%.

For the compound “4-(2-(2-(3,4,5-tris(isomeric decyloxy)-benzamido)-ethoxy)-ethoxy)-benzhydrylamine [DPA-006]”, the “solubility in DMSO” value is below 1%, the “solubility in MeOH” value is recorded as below 1%, the “solubility in DMF” value is listed as above 100% and the “solubility in Heptane” value is above 100%. The “solubility in i-PrOAc” value was above 100% and the “solubility in MTBE” value was above 100%.

Take `CC(C)CCCCCOc1cc(C(=O)NCCOCCOc2ccc(C(N)c3ccc(OCCOCCNC(=O)c4cc(OCCCCCC(C)C)c(OCCCCCC(C)C)c(OCCCCCC(C)C)c4)cc3)cc2)cc(OCCCCCC(C)C)c1OCCCCCC(C)C` [DPA-001, 4,4′-di(2-(2-(3,4,5-tris(isooctyloxy)-benzamido)-ethoxy)-ethoxy) benzhydrylamine]: the “solubility in DMSO” value is listed as below 1%, the “solubility in MeOH” value is below 1%, the “solubility in DMF” value is on record as above 20% and the “solubility in Heptane” value was above 25%. Moreover, the “solubility in i-PrOAc” value was above 30% and the “solubility in MTBE” value is given as above 30%.

`CCCCCCCCCCCCCOc1cc(C(=O)NCCOCCOc2ccc(C(N)c3ccc(OCCOCCNC(=O)c4cc(OCCCCCCCCCCCCC)c(OCCCCCCCCCCCCC)c(OCCCCCCCCCCCCC)c4)cc3)cc2)cc(OCCCCCCCCCCCCC)c1OCCCCCCCCCCCCC` [DPA-003, 4,4′-di(2-(2-(3,4,5-tris(isomeric tridecyloxy)-benzamido)-ethoxy)-ethoxy)-benzhydrylamine]: the “solubility in DMSO” value was below 1%, the “solubility in MeOH” value is reported as below 1%, the “solubility in DMF” value is listed as above 20% and the “solubility in Heptane” value is given as above 50%. Also, the “solubility in i-PrOAc” value was above 100% and the “solubility in MTBE” value was above 100%.

Consider `CCCCCCCCCCCCCOc1cc(C(=O)NCCOCCOc2ccc(C(N)c3ccccc3)cc2)cc(OCCCCCCCCCCCCC)c1OCCCCCCCCCCCCC` (stereo not drawn) [DPA-007, 4-(2-(2-(3,4,5-tris(isomeric tridecyloxy)-benzamido)-ethoxy)-ethoxy)-benzhydrylamine], for which the “solubility in DMSO” value is on record as below 1%, the “solubility in MeOH” value is below 1%, the “solubility in DMF” value is given as above 100% and the “solubility in Heptane” value was above 100%. The “solubility in i-PrOAc” value is listed as above 100% and the “solubility in MTBE” value was above 100%.

`CC(C)CCCCCCOc1cc(C(=O)NCCOCCOc2ccc(C(N)c3ccc(Cl)cc3)cc2)cc(OCCCCCCC(C)C)c1OCCCCCCC(C)C` (stereo not drawn) [DPA-011, 4-(2-(2-(3,4,5-tris(isononyloxy)-benzamido)-ethoxy)-ethoxy)-4′-chloro-benzhydrylamine]: the “solubility in DMSO” value is given as below 1%, the “solubility in MeOH” value is on record as below 1%, the “solubility in DMF” value was above 150% and the “solubility in Heptane” value is given as above 100%. The “solubility in i-PrOAc” value is above 100% and the “solubility in MTBE” value is given as above 50%.

`CCCCCCCCCCCCCOc1ccc(CC(=O)NCCOCCOc2ccc(C(N)c3ccccc3)cc2)cc1OCCCCCCCCCCCCC` (stereo not drawn) [DPA-013, 4-(2-(2-(3,4-di(isomeric tridecyloxy)-phenylacetamido)-ethoxy)-ethoxy)-benzhydrylamine]: the “solubility in DMSO” value is below 1%, the “solubility in MeOH” value is below 1%, the “solubility in DMF” value was above 50% and the “solubility in Heptane” value is above 50%. Moreover, the “solubility in i-PrOAc” value is on record as above 70% and the “solubility in MTBE” value is reported as above 50%.

For the compound `CC(C)CCCCCCCCCCCCCCC(=O)NCCCCC(NC(=O)CCCCCCCCCCCCCCC(C)C)C(=O)NCCOCCOc1ccc(C(N)c2ccccc2)cc1` (stereo not drawn) [DPA-014, 4-(2-(2-(2,6-diisostearamido-hexanamido)-ethoxy)-ethoxy)-benzhydrylamine], the “solubility in DMSO” value is below 10%, the “solubility in MeOH” value is listed as below 10%, the “solubility in DMF” value was above 40% and the “solubility in Heptane” value is recorded as above 30%. Further, the “solubility in i-PrOAc” value is above 50% and the “solubility in MTBE” value was above 50%.

As to `CCCCCCCCCCCCCOc1cc(C(=O)NCCCC(=O)NCCOCCOc2ccc(C(N)c3ccccc3)cc2)cc(OCCCCCCCCCCCCC)c1OCCCCCCCCCCCCC` (stereo not drawn) [DPA-015, 4-(2-(2-(4-(3,4,5-tri(isomeric tridecyloxy)-benzamido)-butyrylamido)-ethoxy)-ethoxy)-benzhydrylamine], the “solubility in DMSO” value was below 1%, the “solubility in MeOH” value is on record as below 1%, the “solubility in DMF” value is reported as above 100% and the “solubility in Heptane” value is above 50%. For the same compound, the “solubility in i-PrOAc” value is given as above 100% and the “solubility in MTBE” value is above 100%.

For `CCCCCCCCCCCCCOc1cc(C(=O)NCCCCC(NC(=O)c2cc(OCCCCCCCCCCCCC)c(OCCCCCCCCCCCCC)c(OCCCCCCCCCCCCC)c2)C(=O)NCCOCCOc2ccc(C(N)c3ccccc3)cc2)cc(OCCCCCCCCCCCCC)c1OCCCCCCCCCCCCC` (stereo not drawn) [DPA-017], the “solubility in DMSO” value is listed as below 5%, the “solubility in MeOH” value is below 5%, the “solubility in DMF” value is listed as above 100% and the “solubility in Heptane” value is given as above 100%. The “solubility in i-PrOAc” value is above 100% and the “solubility in MTBE” value is listed as above 100%.

For `CC(CCC(C(=O)NCCOCCOc1ccc(C(N)c2ccc(OCCOCCNC(=O)C(CCC(C)CC(C)(C)C)C(C)CC(C)(C)C)cc2)cc1)C(C)CC(C)(C)C)CC(C)(C)C` (stereo not drawn) [DPA-018, 4,4′-di(2-(2-(isostearamido)-ethoxy)-ethoxy)-benzhydrylamine], the “solubility in DMSO” value is below 5%, the “solubility in MeOH” value is given as below 10%, the “solubility in DMF” value was above 100% and the “solubility in Heptane” value is given as above 5%. The “solubility in i-PrOAc” value is above 100% and the “solubility in MTBE” value is above 100%.

`CC(CCC(C(=O)N(CCOCCOc1ccc(C(N)c2ccccc2)cc1)Cc1ccccc1)C(C)CC(C)(C)C)CC(C)(C)C` (stereo not drawn) [DPA-019]: the “solubility in DMSO” value is listed as below 5%, the “solubility in MeOH” value was below 10%, the “solubility in DMF” value is given as above 50% and the “solubility in Heptane” value was above 50%. The “solubility in i-PrOAc” value is on record as above 100% and the “solubility in MTBE” value was above 100%.

Regarding `CC(CCC(C(=O)N(CCOCCOc1ccc(C(N)c2ccc(OCCOCCN(Cc3ccccc3)C(=O)C(CCC(C)CC(C)(C)C)C(C)CC(C)(C)C)cc2)cc1)Cc1ccccc1)C(C)CC(C)(C)C)CC(C)(C)C` (stereo not drawn) [DPA-020], the “solubility in DMSO” value is reported as below 5%, the “solubility in MeOH” value is below 5%, the “solubility in DMF” value is above 100% and the “solubility in Heptane” value is recorded as above 100%. Further, the “solubility in i-PrOAc” value is listed as above 100% and the “solubility in MTBE” value is recorded as above 100%.

Regarding `CCCCCCCCCCCCOc1cc(C(=O)NCCOCCOc2ccc(C(N)c3ccccc3)cc2)cc(OCCCCCCCCCCCC)c1OCCCCCCCCCCCC` (stereo not drawn) [DPA-023, 4-(2-(2-(3,4,5-tri(n-dodecyloxy)-benzamido)-ethoxy)-ethoxy)-benzhydrylamine], the “solubility in DMSO” value is listed as below 5%, the “solubility in MeOH” value is on record as below 5%, the “solubility in DMF” value was above 30% and the “solubility in Heptane” value is above 50%. Besides, the “solubility in i-PrOAc” value is on record as above 50% and the “solubility in MTBE” value is reported as above 50%.

In the case of `CCCCCCCCCCCCCOc1cc(C(=O)N(C)CCOc2ccc(C(N)c3ccccc3)cc2)cc(OCCCCCCCCCCCCC)c1OCCCCCCCCCCCCC` (stereo not drawn) [DPA-026, 4-(2-(N′-methy-3,4,5-tri(isomeric tridecyloxy)-benzamido)-ethoxy)-benzhydrylamine], the “solubility in DMSO” value is given as below 1%, the “solubility in MeOH” value is recorded as below 1%, the “solubility in DMF” value was above 100% and the “solubility in Heptane” value is on record as above 50%. Moreover, the “solubility in i-PrOAc” value is above 100% and the “solubility in MTBE” value is reported as above 100%.

As to `CCCCCCCCCCCCCOc1ccc(CN(CCOCCOc2ccc(C(N)c3ccccc3)cc2)C(C)=O)cc1OCCCCCCCCCCCCC` (stereo not drawn) [DPA-027], the “solubility in DMSO” value is below 1%, the “solubility in MeOH” value is reported as below 1%, the “solubility in DMF” value is above 75% and the “solubility in Heptane” value was above 50%. For the same compound, the “solubility in i-PrOAc” value was above 75% and the “solubility in MTBE” value is listed as above 75%.

Consider `CCCCCCCCCCCCCOc1ccc(CN(CCOCCOc2ccc(C(N)c3ccccc3)cc2)C(=O)CC(C)CC(C)(C)C)cc1OCCCCCCCCCCCCC` (stereo not drawn) [DPA-028], for which the “solubility in DMSO” value is below 1%, the “solubility in MeOH” value was below 1%, the “solubility in DMF” value was above 100% and the “solubility in Heptane” value is above 100%. Also, the “solubility in i-PrOAc” value is listed as above 100% and the “solubility in MTBE” value is on record as above 100%.
